Results taken from patent US11053170B2, “Liquid urease inhibitor formulations” (YARA INTERNATIONAL ASA, priority 2016, dated 2021).

Legend:
[1] = test system: rat; conditions: cited from earlier work
[2] = Stability of nBTPT on urea granules (coated); format: physicochemical; conditions: 500 ppm, bagged, room temperature
Procedure: In a next step, the nBTPT material was slowly added. A residence time of 10 minutes was applied and the rotating speed of the drum was consequently the same in each experiment. Larger scale experiments with amounts up to 40 kg of fertilizer material were performed in a concrete mixer.
The samples were stored under several conditions, dependent on the type of samples: • Bagged at room temperature (20° C.) or in a Nissen hut (an unconditioned bulk storage hall) • Open to air in a Nissen hut
Typically, a day/night cycle is generated in the Nissen hut, with temperature fluctuations between 0 to 42° C. and fluctuations of relative humidity between 20 and 90%, which can be compared with real life storage in silos.

[3] = test system: urease; conditions: on urea; Rheinland soil (pH 6.5) and Palencia soil (pH 7.5); 25° C., 14 days
Procedure: Erlenmeyer flasks were filled with 300 g air-dried, arable topsoil, irrigated to a desired % of its WHC (Water Holding Capacity), incubated for 6 days prior to the application of the fertilizers. Fertilizers (2.5-3.15 mm granule size) at a concentration of 100 mg N (Nitrogen)/flask were applied over the soil surface. Boric acid traps were installed to catch volatile ammonia from the air above the topsoil, and the Erlenmeyer flasks were installed in a Phytotron chamber at 25° C. at windy but not dry conditions.

Structure (SMILES)	toxicity oral rat LD50 [1] [mg/kg]	nBTPT degradation in 155 days [2]	urease inhibitory activity and volatilization control (cumulated volatile ammonia losses) [3]
CN1CCCC1 [NMP, N-methylpyrrolidine]	3914		
CCCCNP(N)(N)=S [nBTPT, N-(n-butyl) thiophosphoric triamide]		about 75%	no statistically significant difference
